Measured values reported in US8921273B2, “Substituted pyridazines having herbicidal action” (BASF SE, priority 2010, dated 2014).

Tests used:
Assay in all cases: greenhouse herbicidal activity, post-emergence treatment
Conditions in all cases: application rate 0.5 kg/ha, scale from 0 to 100
GALAP = type: in vivo, Galium aparine
Description: (§1) The seeds of the test plants were sown separately for each species. For the post-emergence treatment, the test plants were first grown to a height of 3 to 15 cm, depending on the plant habit, and only then treated with the active ingredients which had been suspended or emulsified in water. For this purpose, the test plants were either sown directly and grown in the same containers, or they were first grown separately as seedlings and transplanted into the test containers a few days prior to treatment. Depending on the species, the plants were kept at 10-25° C. or 20-35° C. The test period extended over 2 to 4 weeks. During this time, the plants were tended, and their response to the individual treatments was evaluated. Evaluation was carried out using a scale from 0 to 100. 100 means no emergence of the plants, or complete destruction of at least the aerial moieties, and 0 means no damage, or normal course of growth. A good herbicidal activity is given at values of at least 70 and a very good herbicidal activity is given at values of at least 85. The plants used in the greenhouse experiments belonged to the following species: [table]

AMARE = type: in vivo, Amaranthus retroflexus
Description: as §1

ECHCG = type: in vivo, Echinochloa crus-galli
Description: as §1

CHEAL = type: in vivo, Chenopodium album
Description: as §1

Row | SMILES | herbicidal activity against GALAP (GALAP) | herbicidal activity against AMARE (AMARE) | herbicidal activity against ECHCG (ECHCG) | herbicidal activity against CHEAL (CHEAL)
1 | O=c1c(-c2cccc(C3=NOCC3)c2C(F)(F)F)c(O)c2nccnc2n1CC(F)F [I-2, 5-(2,2-difluoroethyl)-7-[3-(4,5-dihydroisoxazol-3-yl)-2-(trifluoromethyl)phenyl]-8-hydroxy-pyrido[2,3-b]pyrazin-6-one] | very good herbicidal activity (a very good herbicidal activity is given at values of at least 85) | very good herbicidal activity (a very good herbicidal activity is given at values of at least 85) |  | 
2 | O=c1c(-c2cc(Cl)cc(N3CCOCC3)c2C(F)(F)F)c(O)c2nccnc2n1CC(F)F [I-1, 7-[5-chloro-3-morpholino-2-(trifluoromethyl)phenyl]-5-(2,2-difluoroethyl)-8-hydroxy-pyrido[2,3-b]pyrazin-6-one] |  |  | very good herbicidal activity (a very good herbicidal activity is given at values of at least 85) | very good herbicidal activity (a very good herbicidal activity is given at values of at least 85)
